Columns and labels:
Src = Src (Homo sapiens, UniProt P12931); test: Src tyrosine kinase activation assay (mobility shift); type: biochemical
Description: IGF1R and Src tyrosine kinases have endogenous levels of activity in the presence of ATP and substrate. This activity was readily measured using a mobility shift assay using a Caliper LabChip® 3000 and a 12-sipper LabChip® to detect both phosphorylated and unphosphorylated substrate (Caliper Life Sciences, Discovery Alliances and Services Division). Enzyme, substrate and ATP concentrations were optimized for each assay. For the IGF1R assay, the final concentrations of the enzyme, peptide and ATP were 20 nM, 1.5 μM, and 1220 μM, respectively. For the Src assay, the final concentrations of the enzyme, peptide and ATP were 2.5 nM, 1.5 μM, and 17 μM, respectively.
RLip-EA-OH was evaluated at multiple concentrations for an effect on activation of IGF1 receptor kinase (IGF1R) and Src. The compounds tested activated IGF1R and Src with different selectivities.

[1] = Oxygen Radical Absorbance Capacity (ORAC) assay; conditions: mean of 3-4 experiments
Description: Peroxyl radicals are one species of reactive oxygen produced by cells during reperfusion. The presence of peroxyl radicals can be detected by fluorescein oxidation. In the presence of peroxyl radicals, fluorescein fluorescence will decay over time. In the presence of an oxygen radical scavenger, the rate of decay is diminished. The change in the rate of decay between control and in the presence of scavengers is used to measure the peroxyl radical scavenging ability of a test compound.
Each compound tested was diluted to a concentration ranging from 25 μM to 250 μM in 10 mM phosphate buffer (pH=7.4) containing 10 nM fluorescein. The buffer and compound were incubated at 37° C. for 10 minutes. After the incubation, flourescein fluorescence was measured using a plate reader (Molecular Devices Flexstation II, Ex=485, Em=520). Baseline fluorescence measurements were recorded for 15 minutes before 2,2′-azobis(2-methylpropionamidine) dihydrochloride (AAPH) was added. The fluorescence decay was recorded for 90 minutes. The fluorescence decay without compound was subtracted from the fluorescence decay with compound. The slope of the decay vs. concentration is reported as the absorbance capacity.

Akt = test: Cytoblot assay for Akt activation in A549 cells; type: cell-based, human
Method: The ability of RLip-EA-OH to increase phosphorylated Akt was assayed using an in-cell western blot, or cytoblot. A549 cells (human non-small cell lung cancer cell line) were selected because these cells can be manipulated to increase or decrease the level of phosphoryated Akt. The cells were inoculated onto culture plates and allowed to adhere to the bottom, then treated, fixed, and permeabilized. Following permeabilization, the cells were treated with antibodies specific for either phospho-Akt or total Akt. The cells were then treated with fluorescent secondary antibodies to quantify the amount of bound primary antibody. Total Akt and phospho-Akt were simultaneously detected.
A549 cells were plated in 384 well black-wall, clear-bottom, cell culture-treated microtiter plates at 70% confluence. Cells were incubated overnight to allow cell attachment. The media was changed to low serum (0.1%, fetal bovine serum [FBS]) and the cells were incubated for another 24 hours. Cells were treated with test compounds, fixed and permeabilized for the Akt assay. The fixative was 3.7% formaldehyde in phosphate buffered saline. The permeabilization buffer was 0.5% Triton X-100 in phosphate buffered saline. After permeabilization of cells, the amounts of total Akt and phosphorylated Akt at either of the two phosphorylation sites (threonine-308 and serine-473) were determined at 7 test concentrations, each performed in quadruplicate. The phospho-Akt data were normalized to total Akt and background subtracted for analysis.
Following overnight serum starvation to reduce basal Akt phosphorylation, cells were stimulated with vehicle, RLip-EA-OH, or RLip-OH. Cells were treated for 45 minutes or 3 hours and studied for phosphorylation at serine-473 or threonine 308, respectively.

insulin receptor kinase = target: T1, insulin receptor kinase (Homo sapiens, UniProt P06213); test: IRK activation assay (mobility shift kinase assay); type: biochemical
T1 construct: insulin receptor kinase domain (Millipore catalog #14-466, 80 nM); purchased Millipore 14-466
Description: Insulin receptor kinase activity was readily measured by a mobility shift assay using a Caliper LabChip® 3000 and a 12-sipper LabChip® to detect both phosphorylated and unphosphorylated substrate (Caliper Life Sciences, Discovery Alliances and Services Division, Hanover, Md.). The mobility-shift kinase assay uses a micro fluidic chip to measure the conversion of a fluorescent peptide substrate to a phosphorylated product. The reaction mixture from a microtiter plate well was introduced through a capillary sipper onto the chip and the nonphosphorylated substrate and phosphorylated product were separated by electrophoresis and detected via laser-induced fluorescence. […] The catalytic subunits of tyrosine kinases have endogenous levels of activity in the presence of ATP and substrate, thus the results are presented as a % of control.
Specifically, each test compound was diluted to 25 times its assay concentration with 100% DMSO and added to 12 μL of an assay buffer solution (100 mM HEPES, 10 mM MnCl2, 5 mM B-GP, and 0.002% Brij) containing dithiotheritol (DTT, 2 mM) and insulin receptor kinase domain (Millipore catalog #14-466, 80 nM) prior to pre-incubation at room temperature for 15 minutes. […] The samples were placed on the LabChip 3000 to measure the amount of parent substrate and phosphorylated product. […]

Sequence of Src (P12931 whole entry, species assumed): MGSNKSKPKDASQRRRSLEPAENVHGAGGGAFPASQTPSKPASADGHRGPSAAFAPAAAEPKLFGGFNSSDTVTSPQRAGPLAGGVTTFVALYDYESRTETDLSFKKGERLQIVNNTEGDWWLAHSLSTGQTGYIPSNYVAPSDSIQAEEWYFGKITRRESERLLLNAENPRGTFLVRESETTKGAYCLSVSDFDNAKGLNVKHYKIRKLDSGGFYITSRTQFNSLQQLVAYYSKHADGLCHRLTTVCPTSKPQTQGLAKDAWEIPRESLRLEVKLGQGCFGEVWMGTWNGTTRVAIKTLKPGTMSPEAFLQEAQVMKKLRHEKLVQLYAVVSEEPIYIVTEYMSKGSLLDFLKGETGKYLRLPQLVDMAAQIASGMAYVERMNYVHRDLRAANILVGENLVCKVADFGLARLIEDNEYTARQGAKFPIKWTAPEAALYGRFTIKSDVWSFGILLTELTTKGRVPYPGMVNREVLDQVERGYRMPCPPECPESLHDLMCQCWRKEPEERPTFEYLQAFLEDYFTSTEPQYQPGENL
T1 sequence (P06213 1023-1298 limits assumed): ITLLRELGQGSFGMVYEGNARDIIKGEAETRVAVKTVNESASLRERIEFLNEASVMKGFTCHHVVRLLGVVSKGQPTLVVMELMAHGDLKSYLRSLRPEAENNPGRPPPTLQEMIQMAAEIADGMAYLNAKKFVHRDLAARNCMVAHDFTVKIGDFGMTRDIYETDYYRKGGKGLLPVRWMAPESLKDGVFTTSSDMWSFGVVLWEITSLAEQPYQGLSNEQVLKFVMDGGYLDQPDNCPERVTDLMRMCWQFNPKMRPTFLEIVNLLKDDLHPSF

Question: With C[C@H](NC(=O)[C@H](CCC(=O)O)NC(=O)CCCC[C@@H]1CCSS1)C(=O)O [RLip-EA-OH, N-(R)-lipoyl-L-glutamyl-L- alanine] as the molecule, how does the “Src % activity above control (±SEM)” value (Src; 100 μM) read?
Answer: 70 ± 1%

Question: And the “Src % Increase in activity above vehicle control” value (Src; 300 μM)?
Answer: 78 ± 2%

Question: And the “ORAC Value relative to RLip-EA-OH” value [1]?
Answer: 100 ± 11

Question: And the “ORAC Value relative to RLip-OH” value [1]?
Answer: 131 ± 6^

Question: What about the “increase in phosphorylated Akt at serine 473” value (Akt; 45 minutes of treatment) of the same molecule?
Answer: 3 fold

Question: And the “Akt phosphorylation at threonine-308” value (Akt; 3 hours of treatment, compound alone)?
Answer: Increased Akt phosphorylation

Question: What about the “amount of phosphorylated Akt relative to total Akt” value (Akt; variant concentrations) of the same molecule?
Answer: increased the amount of phosphorylated Akt relative to total Akt in a dose dependent manner

Question: What about the “AVG % activity above control (±SEM)” value (insulin receptor kinase; 100 μM) of the same molecule?
Answer: 78 ± 15%

Question: And the “IRK % Increase in activity above vehicle control” value (insulin receptor kinase; 300 μM)?
Answer: 77 ± 7%

Source: patent publication US8772250B2, “Compositions and methods for treating ischemia and ischemia-reperfusion injury” (Ischemix, LLC, priority 2010, dated 2014)
